# Laboratory results reported in patent US12377068B2, “In vitro and xenograft anti-tumor activity of a halogenated-xanthene against refractory pediatric solid tumors” (Provectus Pharmatech, Inc., priority 2018, dated 2025).
# Key:
# SK-N-AS = assay: combination studies with PV-10, alamar Blue; assay type: cell-based; settings: in combination with 50 μM PV-10, 96 hours
# Procedure: (§1) Cells were cultured as described for cytotoxicity assays. A dilution series of three test drugs (doxorubicin, etoposide, vincristine) were prepared in DMEM containing either PBS (vehicle control) or PV10 (50 µM final) and added to cells in triplicate. Plates were cultured, washed and cell viability analyzed by alamar Blue®, as described for cytotoxicity assays. Combination indices (CI) for IC50 of test drug in combination with 50 µM PV-10 were calculated using CompuSyn software (ComboSyn Inc.). CI values were scored according to the following criteria CI<1 indicated synergistic activity, CI=1 indicated additive activity and CI>1 indicated […].
# SK-N-MC = assay: combination studies with PV-10, alamar Blue; assay type: cell-based; settings: in combination with 50 μM PV-10, 96 hours
# Procedure: as §1
# IMR5 = assay: combination studies with PV-10, alamar Blue; assay type: cell-based; settings: IMR5, in combination with 50 μM PV-10, 96 hours
# Procedure: as §1
# SK-N-BE(2) = assay: combination studies with PV-10, alamar Blue; assay type: cell-based; settings: in combination with 50 μM PV-10, 96 hours
# Procedure: as §1
# [1] = test system: SK-N-AS, SK-N-BE (2), IMR5 and SK-N-MC cells; assay: combination studies with PV-10, summary over cell lines; assay type: cell-based; settings: in combination, 96 hours
# Procedure: as §1
# [2] = rat; cited from earlier work
combination index (CI) for IC50 of test drug (SK-N-AS),combination index (CI) for IC50 of test drug (SK-N-MC),combination index (CI) for IC50 of test drug (SK-N-BE(2)),SMILES,combination index (CI) for IC50 of test drug (IMR5),"CI values, range over the cell lines [1]",in vivo biological lifetime [2]
0.77,0.42,0.72,"COc1cccc2c1C(=O)c1c(O)c3c(c(O)c1C2=O)C[C@@](O)(C(=O)CO)C[C@@H]3O[C@H]1C[C@H](N)[C@H](O)[C@H](C)O1 [Doxorubicin, doxorubicin]",0.38,0.42-0.77,–
0.17,0.58,0.66,"COc1cc([C@@H]2c3cc4c(cc3[C@@H](O[C@@H]3O[C@@H]5CO[C@@H](C)O[C@H]5[C@H](O)[C@H]3O)[C@H]3COC(=O)[C@H]23)OCO4)cc(OC)c1O [Etoposide, etoposide]",0.65,0.17-0.66,–
–,–,–,"O=C([O-])c1c(Cl)c(Cl)c(Cl)c(Cl)c1-c1c2cc(I)c(=O)c(I)c-2oc2c(I)c([O-])c(I)cc12.[Na+].[Na+] [Rose Bengal, 4,5,6,7-tetrachloro-2′,4′,5′,7′-tetraiodofluorescein disodium]",–,–,a few minutes
0.35,0.43,0.1,"CC[C@]1(O)C[C@H]2CN(CCc3c([nH]c4ccccc34)[C@@](C(=O)OC)(c3cc4c(cc3OC)N(C=O)[C@H]3[C@@](O)(C(=O)OC)[C@H](OC(C)=O)[C@]5(CC)C=CCN6CC[C@]43[C@@H]65)C2)C1 [Vincristine, vincristine]",0.2,0.1-0.43,–
